Here are results for 1 compound from patent US20090054375A1, “Compositions, Systems, and/or Methods Involving Chlorine Dioxide” (priority 2007, published 2009).

A short description of the series: Enhanced solubility of beta-cyclodextrin in water containing ClO2 (slurry test). The class given is physicochemical. The following applies: 100 g slurries of 5% beta-cyclodextrin (w/w) in 8000 ppm ClO2 vs ultrapure water, mixed at 200 rpm for 3 days, dried 2 days.

In the case of `OC[C@H]1O[C@@H]2O[C@H]3[C@H](O)[C@@H](O)[C@@H](O[C@H]4[C@H](O)[C@@H](O)[C@@H](O[C@H]5[C@H](O)[C@@H](O)[C@@H](O[C@H]6[C@H](O)[C@@H](O)[C@@H](O[C@H]7[C@H](O)[C@@H](O)[C@@H](O[C@H]8[C@H](O)[C@@H](O)[C@@H](O[C@H]1[C@H](O)[C@H]2O)O[C@@H]8CO)O[C@@H]7CO)O[C@@H]6CO)O[C@@H]5CO)O[C@@H]4CO)O[C@@H]3CO` [beta-cyclodextrin], the “weight of dried undissolved beta-cyclodextrin from the ClO2 containing slurry, less than the control slurry” value worked out at 0.32 g.
